Results: US9796760B2, “Modified peptide, CB receptor ligand, kit in vitro process for evaluating CB receptor bonds, uses, pharmaceutical composition for modulating CB receptor activity” (Proteimax Biotecnologia Ltda, priority 2012, dated 2017)
“Also recorded” adds a separate entry of the source. No end group written: not given here.

Key:
CB1 receptor [1] = assay: ELISA with striate membranes and anti-CB1 antibody, receptor activating percentage vs non-treated membrane; type: biochemical; conditions: 2 hours; for activity regarding the CB1 (receptor activating percentage regarding control): striate membranes 5 μg/pool, 1 μM of each drug, ambient temperature, variants compared with SeqID:1
Experimental: (§1) The receptor activating percentage was calculated regarding the control, non-treated membrane (100%). […] Significant differences are indicated and p<0.05.

[2] = Activity on oral administration (statement, no separate method); type: in vivo, mammalian
[3] = Depression model (forced swim); type: in vivo; conditions: rats
Experimental: The forced swim test was performed based on the previous tests ([Harkin et al., 2004], [Petit-Demouliere et al., 2005] and [Treit and Menard, 1998]).

CB2 receptor = assay: ELISA with striate membranes for CB2 receptor, receptor activating percentage vs non-treated membrane; type: biochemical; conditions: striate membranes 5 μg/pool, 1 μM of each drug, 2 hours, ambient temperature
Experimental: as §1

[4] = Test in retroperitoneal adipose tissue, 3 days oral treatment; type: in vivo, Thin wistar rats; conditions: 100 ug/Kg, 3 days orally, vs Rimonabant and/or saline groups
Experimental: (§2) Furthermore, in a treatment acute model (3 days of treatment orally in non-obese wistar rats) it was verified the brown adipose tissue activation, the retroperitoneal, inguinal and brown adipose tissues reduction, as well the adiposity ratio (FIGS. 4 to 9), effects not observed with Rimonabant.
The measure of the adipose tissue was performed after finishing the treatment. The results are expressed by the retroperitoneal adipose tissue weight measured for treatment purpose (scale of g/100 g). Rats administered with vehicle (saline) were subject to the same protocol (control).

[5] = Test in inguinal adipose tissue, 3 days oral treatment; type: in vivo, Thin wistar rats; conditions: 100 ug/Kg, 3 days orally, vs Rimonabant and/or saline groups
Experimental: as §2
The measure of the adipose tissue was performed after finishing the treatment. The results are expressed by the inguinal adipose tissue weight measured at the treatment end (scale of g/100 g). Rats administered with vehicle (saline) were subject to the same protocol (control).

[6] = Test in brown adipose tissue, 3 days oral treatment; type: in vivo, Thin wistar rats
Experimental: as §2
The measure of the adipose tissue was performed after finishing the treatment. The results are expressed by the brown adipose tissue weight measured at the treatment end (scale of g/100 g). Rats administered with vehicle (saline) were subject to the same protocol (control).

[7] = Adiposity ratio determination, 3 days oral treatment; type: in vivo, Thin wistar rats; conditions: 100 ug/Kg, 3 days orally, vs Rimonabant and/or saline groups
Experimental: as §2
Thin wistar rats were treated with a Rimonabant dosage (100 ug/Kg) or peptide 19 (Pep 19 100 ug/Kg) during 3 days orally. The measure of the adiposity ratio was performed after finishing the treatment using the formula (%), (I=Σ fat deposits/body weight×100). The results are expressed by the animal weight measured at the treatment end (scale of g/100 g). Rats administered with vehicle (saline) were subject to the same protocol (control).

[8] = Glucose in animals supplemented with 20% sucrose, 30 days-treatment; type: in vivo, Winstar rats; conditions: Rimonabant (positive control, dose not given), 15th and 30th days of treatment
Experimental: Winstar rats fed with standard regimen supplemented with 20% sucrose were used in the drinking water during 60 days before and during the 30 days-treatment with SALINE (negative control), Rimonabant (positive control), Peptide 19 (Pep 19) in the concentration of 50 μg/Kg and Peptide 19 (Pep 19) in the concentration of 100 μg/Kg.

[9] = Cholesterol in animals supplemented with 20% sucrose, 30 days-treatment; type: in vivo, Wistar rats; conditions: Rimonabant (positive control, dose not given), after 30 days-treatment
Experimental: Wistar rats fed with standard regimen supplemented with 20% sucrose were used in the drinking water during 60 days before and during the 30 days-treatment with SALINE (negative control), Rimonabant (positive control), Peptide 19 (Pep 19) in the concentration of 50 μg/Kg and Peptide 19 (Pep 19) in the concentration of 100 μg/Kg.

[10] = prior art statement; cited from earlier work
[11] = Pain test: carrageenan-induced hyperalgesia, intraplantar administration; type: in vivo, Rats; conditions: 20 g by leg, immediately before carrageenan 200 g by leg, 0 h and 3 h
Experimental: It was performed the comparative analysis of the peptide intraplantar administration over the carrageenan-induced hyperalgesia. Rats were treated with peptide ([…]) immediately before the carrageenan intraplantar administration ([…]) and were evaluated using a pressure apparatus […] (0 h and empty legs) and 3 h after administration of carrageenan (black legs).

CB1 receptor [12] = target: CB1 receptor (Homo sapiens, UniProt P21554); conditions: disclosed in WO 2011/011847; cited from earlier work
Chain of CB1 receptor (Homo sapiens, UniProt P21554) (P21554 whole entry): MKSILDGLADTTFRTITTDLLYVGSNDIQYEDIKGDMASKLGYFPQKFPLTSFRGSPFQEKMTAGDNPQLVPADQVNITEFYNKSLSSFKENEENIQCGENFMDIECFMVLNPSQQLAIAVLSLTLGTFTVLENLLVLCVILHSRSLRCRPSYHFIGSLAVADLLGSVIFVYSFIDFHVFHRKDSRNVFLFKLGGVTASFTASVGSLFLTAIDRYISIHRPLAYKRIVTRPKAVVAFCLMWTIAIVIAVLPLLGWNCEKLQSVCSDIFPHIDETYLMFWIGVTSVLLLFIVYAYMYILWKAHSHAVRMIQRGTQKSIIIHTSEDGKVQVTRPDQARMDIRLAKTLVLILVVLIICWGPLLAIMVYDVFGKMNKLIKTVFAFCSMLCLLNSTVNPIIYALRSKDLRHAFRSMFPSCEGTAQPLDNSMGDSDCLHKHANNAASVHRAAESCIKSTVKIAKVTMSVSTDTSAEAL

For DIIADDEALT [Modified peptide 5], the “activity in CB1 / endocannabinoid receptors in high dosages” value (CB1 receptor [1]; different dosages of drug, high dosages, listed as SeqID:5) was “agonist activity”, the “activity in CB1 / endocannabinoid receptors in low dosages” value (CB1 receptor [1]; different dosages of drug, low dosages, listed as SeqID:5) was “activity inverse agonist” and the “activity when administered orally” value [2] was “has activity even when orally administered”.

For DIIADDAPLT [Modified peptide 3], the “activity regarding the CB1 (receptor activating percentage regarding control)” value (CB1 receptor [1]; listed as SeqID:3) was “smaller activity” and the “activity when administered orally” value [2] was “has activity even when orally administered”.

For “DIIADDEPLT [Modified peptide 1, Asp-Ile-Ile-Ala-Asp-Asp-Glu-Pro-Leu-Thr]”, the “depression in forced swim test (immobility time)” value [3] was “does not cause depression”.

For DIIADDE [Modified peptide 4], the “activity regarding the CB1 (receptor activating percentage regarding control)” value (CB1 receptor [1]; listed as SeqID:4) was “improved inverse agonist activity” and the “activity when administered orally” value [2] was “has activity even when orally administered”.

In the case of “third amino acid of the SeqID:1 (isoleucine amino acid) was replaced for threonine: sequence wherein the third amino acid of the SeqID:1 (isoleucine) was replaced for threonine (DITADDEPLT; Artificial peptide modulator of cannabinoid receptors)”, the “activity regarding the CB1 (receptor activating percentage regarding control)” value (CB1 receptor [1]) is reported as “biological activity loss; also recorded: have not demonstrated activity detectable” and the “activity in CB2 (receptor activating percentage regarding control)” value (CB2 receptor) is reported as “have not demonstrated activity detectable”.

With Cc1c(C(=O)NN2CCCCC2)nn(-c2ccc(Cl)cc2Cl)c1-c1ccc(Cl)cc1 [Rimonabant] the “retroperitoneal adipose tissue mass” value [4] was “not observed”, the “inguinal adipose tissue mass” value [5] was “not observed” and the “brown adipose tissue mass” value ([6]; 100 ug/Kg, 3 days orally, vs Rimonabant and/or saline groups) was “not observed”. For the same molecule, the “brown adipose tissue activation” value ([6]; 3 days of treatment orally in non-obese wistar rats) was “not observed”, the adiposity ratio [7] was “not observed” and the glycaemia [8] was “lower glycaemia”. The “cholesterol in % from SALINE animals” value [9] was “lower cholesterol percentages” and the “crossing the hematoencephalic barrier” value [10] was “crossing the hematoencenphalic layer”.

In the case of “Cyclic Peptide -Asp-Ile-Ile-Ala-Asp-Asp-Glu-Pro-Leu-Thr- (DIIADDEPLT; cyclic; Artificial cyclic peptide modulator of cannabinoid receptors) [Modified peptide 6]”, the “activity when administered orally” value [2] is reported as “has activity even when orally administered”.

In the case of DILADDEPLT [Modified peptide 2], the “activity in CB2 (receptor activating percentage regarding control)” value (CB2 receptor; listed as SeqID:2) is reported as “inverse agonist” and the “activity when administered orally” value [2] is reported as “has activity even when administered orally”.

For CC(C)C[C@H](NC(=O)[C@H](Cc1ccccc1)NC(=O)[C@H](CCCCN)NC(=O)[C@H](Cc1ccccc1)NC(=O)[C@H](CC(N)=O)NC(=O)[C@@H](NC(=O)[C@@H]1CCCN1)C(C)C)C(=O)N[C@@H](CO)C(=O)N[C@@H](Cc1cnc[nH]1)C(=O)O [hemopressin], the antihyperalgesic activity [11] is listed as “antihyperalgesic activity”, the “crossing the hematoencephalic barrier” value [10] is listed as “does not cross the hematoencephalic barrier” and the “binding to the CB1 receptor” value (CB1 receptor [12]) is listed as “binding efficiently”.
